In ChEMBL document CHEMBL4507319 (2021):

Columns and labels:
[1] = target: Ephrin type-B receptor 6 (Homo sapiens) (UniProt O15197); conditions: Compound concentration 1000.0 nM
[2] = target: Platelet-derived growth factor receptor beta (Homo sapiens) (UniProt P09619); conditions: Compound concentration 1000.0 nM
[3] = target: T1, SNF-related serine/threonine-protein kinase (Homo sapiens) (UniProt Q9NRH2); conditions: Compound concentration 1000.0 nM
T1 sequence (whole entry): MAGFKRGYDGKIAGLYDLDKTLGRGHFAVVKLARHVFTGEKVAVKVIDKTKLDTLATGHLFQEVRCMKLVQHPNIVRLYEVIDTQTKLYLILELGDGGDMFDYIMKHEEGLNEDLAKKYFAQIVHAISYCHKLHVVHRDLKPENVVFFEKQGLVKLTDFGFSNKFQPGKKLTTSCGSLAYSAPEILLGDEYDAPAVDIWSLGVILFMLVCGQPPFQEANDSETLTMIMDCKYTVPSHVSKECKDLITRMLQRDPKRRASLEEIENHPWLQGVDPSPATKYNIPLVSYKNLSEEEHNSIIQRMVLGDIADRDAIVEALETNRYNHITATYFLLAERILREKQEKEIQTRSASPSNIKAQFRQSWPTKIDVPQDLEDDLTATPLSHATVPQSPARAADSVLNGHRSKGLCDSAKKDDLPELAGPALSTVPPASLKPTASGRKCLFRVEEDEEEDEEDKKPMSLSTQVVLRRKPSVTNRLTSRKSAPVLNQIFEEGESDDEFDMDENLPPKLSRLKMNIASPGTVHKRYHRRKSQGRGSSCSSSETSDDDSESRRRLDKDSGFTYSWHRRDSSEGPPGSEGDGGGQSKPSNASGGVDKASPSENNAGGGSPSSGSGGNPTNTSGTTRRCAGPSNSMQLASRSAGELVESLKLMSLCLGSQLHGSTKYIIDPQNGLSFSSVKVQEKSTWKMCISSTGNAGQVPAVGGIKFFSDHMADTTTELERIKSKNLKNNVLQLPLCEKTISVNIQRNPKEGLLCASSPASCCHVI

[4] = target: Receptor-interacting serine/threonine-protein kinase 1 (Homo sapiens) (UniProt Q13546); conditions: Compound concentration 1000.0 nM
Sequence of Receptor-interacting serine/threonine-protein kinase 1 (Homo sapiens) (Q13546 whole entry): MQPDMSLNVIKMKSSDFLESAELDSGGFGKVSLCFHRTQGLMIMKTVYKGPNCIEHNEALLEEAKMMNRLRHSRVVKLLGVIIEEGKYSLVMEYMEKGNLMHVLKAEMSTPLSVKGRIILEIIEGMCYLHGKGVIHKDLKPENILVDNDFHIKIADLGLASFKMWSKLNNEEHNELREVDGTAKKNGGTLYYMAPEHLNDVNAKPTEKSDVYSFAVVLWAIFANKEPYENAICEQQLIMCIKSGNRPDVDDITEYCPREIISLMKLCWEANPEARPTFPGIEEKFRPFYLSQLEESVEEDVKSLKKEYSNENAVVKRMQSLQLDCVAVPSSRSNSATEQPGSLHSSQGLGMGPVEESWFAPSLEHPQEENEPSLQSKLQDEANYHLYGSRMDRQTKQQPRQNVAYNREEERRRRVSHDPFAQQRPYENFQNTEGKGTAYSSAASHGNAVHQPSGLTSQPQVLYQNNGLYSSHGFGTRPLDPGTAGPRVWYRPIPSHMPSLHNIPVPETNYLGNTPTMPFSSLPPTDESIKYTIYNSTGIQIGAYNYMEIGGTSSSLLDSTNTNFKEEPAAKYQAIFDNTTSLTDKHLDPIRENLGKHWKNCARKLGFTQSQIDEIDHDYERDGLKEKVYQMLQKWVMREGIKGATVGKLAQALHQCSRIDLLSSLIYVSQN

[5] = target: Serine/threonine-protein kinase mTOR (Homo sapiens) (UniProt P42345); conditions: Compound concentration 1000.0 nM
[6] = target: T2, Mitogen-activated protein kinase kinase kinase 5 (Homo sapiens) (UniProt Q99683); conditions: Compound concentration 1000.0 nM
T2 sequence (whole entry): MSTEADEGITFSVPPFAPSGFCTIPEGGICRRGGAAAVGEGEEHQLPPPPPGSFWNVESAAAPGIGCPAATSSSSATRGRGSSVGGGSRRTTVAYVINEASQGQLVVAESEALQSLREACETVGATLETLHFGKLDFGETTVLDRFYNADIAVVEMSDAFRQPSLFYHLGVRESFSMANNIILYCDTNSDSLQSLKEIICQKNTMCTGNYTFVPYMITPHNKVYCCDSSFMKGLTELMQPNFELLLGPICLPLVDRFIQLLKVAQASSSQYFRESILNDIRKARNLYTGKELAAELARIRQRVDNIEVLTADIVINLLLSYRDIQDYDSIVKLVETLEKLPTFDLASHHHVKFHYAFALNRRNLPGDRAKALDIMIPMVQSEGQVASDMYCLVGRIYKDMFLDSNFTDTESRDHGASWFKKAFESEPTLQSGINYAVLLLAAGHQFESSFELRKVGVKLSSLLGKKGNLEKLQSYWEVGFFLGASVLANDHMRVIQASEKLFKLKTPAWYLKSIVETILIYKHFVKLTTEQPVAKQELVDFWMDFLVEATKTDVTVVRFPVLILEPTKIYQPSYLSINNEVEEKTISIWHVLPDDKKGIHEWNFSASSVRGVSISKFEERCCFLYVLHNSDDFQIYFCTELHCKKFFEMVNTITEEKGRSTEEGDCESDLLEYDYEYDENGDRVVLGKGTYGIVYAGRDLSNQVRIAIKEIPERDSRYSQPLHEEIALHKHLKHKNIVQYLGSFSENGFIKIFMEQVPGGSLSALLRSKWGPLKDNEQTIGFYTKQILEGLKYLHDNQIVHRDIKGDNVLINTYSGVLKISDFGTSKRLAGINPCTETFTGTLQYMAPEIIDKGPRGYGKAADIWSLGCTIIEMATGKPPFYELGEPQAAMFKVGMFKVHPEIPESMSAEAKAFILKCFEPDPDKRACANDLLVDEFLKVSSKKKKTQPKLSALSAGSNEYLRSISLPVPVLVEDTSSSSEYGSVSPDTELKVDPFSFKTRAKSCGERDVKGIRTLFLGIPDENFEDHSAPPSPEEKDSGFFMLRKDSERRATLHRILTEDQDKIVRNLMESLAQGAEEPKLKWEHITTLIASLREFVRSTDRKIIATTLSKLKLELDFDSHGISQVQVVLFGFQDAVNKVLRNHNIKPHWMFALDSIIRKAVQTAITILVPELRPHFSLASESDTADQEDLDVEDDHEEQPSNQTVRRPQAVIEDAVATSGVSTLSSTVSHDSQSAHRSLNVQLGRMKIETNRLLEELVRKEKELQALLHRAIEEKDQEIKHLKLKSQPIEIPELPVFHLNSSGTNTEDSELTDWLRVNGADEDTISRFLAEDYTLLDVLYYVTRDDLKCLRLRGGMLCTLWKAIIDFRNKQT

[7] = target: Mitogen-activated protein kinase 6 (Homo sapiens) (UniProt Q16659); conditions: Compound concentration 1000.0 nM
Sequence of Mitogen-activated protein kinase 6 (Homo sapiens) (Q16659 whole entry): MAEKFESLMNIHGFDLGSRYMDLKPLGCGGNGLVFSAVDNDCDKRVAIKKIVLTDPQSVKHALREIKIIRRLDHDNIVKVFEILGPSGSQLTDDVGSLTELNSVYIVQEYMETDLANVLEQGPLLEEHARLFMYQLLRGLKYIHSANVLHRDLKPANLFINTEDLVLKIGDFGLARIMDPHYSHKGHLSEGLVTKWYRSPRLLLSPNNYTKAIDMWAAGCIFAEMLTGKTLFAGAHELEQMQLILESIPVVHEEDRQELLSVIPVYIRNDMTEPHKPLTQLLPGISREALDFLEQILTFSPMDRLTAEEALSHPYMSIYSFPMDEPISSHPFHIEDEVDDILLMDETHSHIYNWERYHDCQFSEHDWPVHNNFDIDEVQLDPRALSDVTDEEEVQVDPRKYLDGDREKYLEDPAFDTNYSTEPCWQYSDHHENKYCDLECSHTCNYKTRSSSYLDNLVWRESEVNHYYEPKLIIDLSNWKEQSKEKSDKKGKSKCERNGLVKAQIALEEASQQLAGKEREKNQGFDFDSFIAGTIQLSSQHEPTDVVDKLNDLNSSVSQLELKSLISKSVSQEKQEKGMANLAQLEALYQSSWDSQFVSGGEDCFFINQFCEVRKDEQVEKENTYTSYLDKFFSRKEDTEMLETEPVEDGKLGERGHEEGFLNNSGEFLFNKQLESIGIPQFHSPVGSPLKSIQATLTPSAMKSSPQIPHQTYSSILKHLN

[8] = target: Glycogen synthase kinase-3 beta (Homo sapiens) (UniProt P49841); conditions: Compound concentration 1000.0 nM
Sequence of Glycogen synthase kinase-3 beta (Homo sapiens) (P49841 whole entry, looked up): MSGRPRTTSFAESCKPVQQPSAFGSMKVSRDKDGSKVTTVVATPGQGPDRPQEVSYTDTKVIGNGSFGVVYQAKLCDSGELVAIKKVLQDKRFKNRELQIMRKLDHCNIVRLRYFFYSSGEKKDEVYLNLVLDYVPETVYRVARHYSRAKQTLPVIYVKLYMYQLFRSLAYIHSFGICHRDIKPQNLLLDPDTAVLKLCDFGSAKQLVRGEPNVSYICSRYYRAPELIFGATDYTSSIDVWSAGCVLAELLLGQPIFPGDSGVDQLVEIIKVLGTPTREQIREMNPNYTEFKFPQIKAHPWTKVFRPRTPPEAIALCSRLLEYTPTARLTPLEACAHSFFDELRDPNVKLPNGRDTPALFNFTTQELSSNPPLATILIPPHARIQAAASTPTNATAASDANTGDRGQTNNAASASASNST

[9] = target: 5-hydroxytryptamine receptor 2A (Homo sapiens) (UniProt P28223); conditions: Compound concentration 10.0 uM
Sequence of 5-hydroxytryptamine receptor 2A (Homo sapiens) (P28223 whole entry): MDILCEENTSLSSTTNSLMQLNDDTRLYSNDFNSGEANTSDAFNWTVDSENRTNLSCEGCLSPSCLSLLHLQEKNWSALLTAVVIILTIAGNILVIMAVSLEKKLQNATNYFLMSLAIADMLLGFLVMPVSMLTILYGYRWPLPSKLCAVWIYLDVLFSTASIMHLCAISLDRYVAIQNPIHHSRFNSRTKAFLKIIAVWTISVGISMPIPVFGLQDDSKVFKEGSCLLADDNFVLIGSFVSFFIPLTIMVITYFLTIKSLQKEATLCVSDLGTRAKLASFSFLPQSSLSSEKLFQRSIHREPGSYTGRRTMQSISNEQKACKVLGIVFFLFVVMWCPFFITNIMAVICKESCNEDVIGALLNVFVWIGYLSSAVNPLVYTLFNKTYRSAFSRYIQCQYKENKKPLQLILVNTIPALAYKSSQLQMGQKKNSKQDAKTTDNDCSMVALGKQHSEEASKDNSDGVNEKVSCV

Sequence of Ephrin type-B receptor 6 (Homo sapiens) (O15197 whole entry): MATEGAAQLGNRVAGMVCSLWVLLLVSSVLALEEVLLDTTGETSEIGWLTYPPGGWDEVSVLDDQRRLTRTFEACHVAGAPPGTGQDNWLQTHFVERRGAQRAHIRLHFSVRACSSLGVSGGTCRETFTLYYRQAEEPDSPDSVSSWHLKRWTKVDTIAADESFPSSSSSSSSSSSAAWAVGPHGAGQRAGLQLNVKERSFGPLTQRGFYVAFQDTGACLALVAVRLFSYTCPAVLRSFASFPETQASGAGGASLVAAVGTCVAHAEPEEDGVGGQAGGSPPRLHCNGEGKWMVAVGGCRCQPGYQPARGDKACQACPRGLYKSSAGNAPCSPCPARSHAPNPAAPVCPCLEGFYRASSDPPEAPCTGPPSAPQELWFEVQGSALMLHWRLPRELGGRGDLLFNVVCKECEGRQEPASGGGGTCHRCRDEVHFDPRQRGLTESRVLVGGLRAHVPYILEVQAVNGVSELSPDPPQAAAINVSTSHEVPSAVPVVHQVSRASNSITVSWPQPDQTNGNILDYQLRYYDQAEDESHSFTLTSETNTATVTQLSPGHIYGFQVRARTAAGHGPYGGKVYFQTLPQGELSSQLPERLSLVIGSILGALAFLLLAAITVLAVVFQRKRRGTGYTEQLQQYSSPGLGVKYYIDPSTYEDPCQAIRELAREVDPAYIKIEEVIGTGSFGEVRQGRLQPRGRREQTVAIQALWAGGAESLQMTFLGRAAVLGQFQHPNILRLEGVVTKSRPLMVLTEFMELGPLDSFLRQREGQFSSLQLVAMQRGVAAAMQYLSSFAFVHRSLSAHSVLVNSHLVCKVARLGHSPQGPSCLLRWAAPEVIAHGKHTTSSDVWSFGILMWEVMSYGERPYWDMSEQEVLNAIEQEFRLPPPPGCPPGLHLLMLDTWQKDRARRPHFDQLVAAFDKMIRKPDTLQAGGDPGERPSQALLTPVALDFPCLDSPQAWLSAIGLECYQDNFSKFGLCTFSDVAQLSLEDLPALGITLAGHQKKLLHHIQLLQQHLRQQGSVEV
Sequence of Platelet-derived growth factor receptor beta (Homo sapiens) (P09619 whole entry): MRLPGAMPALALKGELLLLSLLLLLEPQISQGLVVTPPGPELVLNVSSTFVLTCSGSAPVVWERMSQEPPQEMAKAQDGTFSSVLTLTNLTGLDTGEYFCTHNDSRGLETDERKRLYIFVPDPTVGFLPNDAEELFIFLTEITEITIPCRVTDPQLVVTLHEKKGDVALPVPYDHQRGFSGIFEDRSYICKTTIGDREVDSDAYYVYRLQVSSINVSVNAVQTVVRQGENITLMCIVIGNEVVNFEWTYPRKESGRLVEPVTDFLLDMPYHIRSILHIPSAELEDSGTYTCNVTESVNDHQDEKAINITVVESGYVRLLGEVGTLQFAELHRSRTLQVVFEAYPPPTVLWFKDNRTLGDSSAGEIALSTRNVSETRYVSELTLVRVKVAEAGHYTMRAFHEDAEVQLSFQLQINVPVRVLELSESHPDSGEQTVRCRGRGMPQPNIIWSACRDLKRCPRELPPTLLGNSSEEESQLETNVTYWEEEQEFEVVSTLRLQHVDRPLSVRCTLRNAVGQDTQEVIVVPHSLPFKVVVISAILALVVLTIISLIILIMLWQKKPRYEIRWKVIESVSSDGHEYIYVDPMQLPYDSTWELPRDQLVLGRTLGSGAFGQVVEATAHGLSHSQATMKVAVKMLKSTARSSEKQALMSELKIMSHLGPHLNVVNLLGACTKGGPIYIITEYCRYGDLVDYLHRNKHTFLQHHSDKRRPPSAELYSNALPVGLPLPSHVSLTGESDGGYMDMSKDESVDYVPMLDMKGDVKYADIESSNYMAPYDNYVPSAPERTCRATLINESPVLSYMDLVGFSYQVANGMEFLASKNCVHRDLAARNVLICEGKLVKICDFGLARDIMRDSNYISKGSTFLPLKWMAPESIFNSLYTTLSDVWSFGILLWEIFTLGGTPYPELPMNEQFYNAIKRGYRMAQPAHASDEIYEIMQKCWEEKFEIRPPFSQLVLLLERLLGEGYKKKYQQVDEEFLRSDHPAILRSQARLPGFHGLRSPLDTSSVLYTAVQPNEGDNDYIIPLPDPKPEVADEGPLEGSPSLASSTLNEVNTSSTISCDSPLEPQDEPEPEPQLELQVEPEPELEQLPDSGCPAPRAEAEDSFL

CCc1ccccc1C(=O)Nc1n[nH]c2c(C)c(F)c(C3C(C#N)=C(C)N(C)C(C)=C3C#N)cc12 [BAY-3827]
inactive: residual activity [1] 100% | residual activity [2] 82% | residual activity [3] 100% | residual activity [4] 100% | residual activity [5] 100% | residual activity [6] 100% | residual activity [7] 100% | residual activity [8] 100% | inhibition [9] 14.8%

CC1=C(C#N)C(c2ccc3c(c2)c(NC(=O)c2ccccc2C)nn3C)C(C#N)=C(C)N1 [BAY-974]
inactive: residual activity [1] 81% | residual activity [2] 94% | residual activity [3] 100% | residual activity [4] 100% | residual activity [5] 75% | residual activity [6] 89% | residual activity [7] 97% | residual activity [8] 81% | inhibition [9] 8.41%
